PMC4901312, “Ecological factors drive natural selection pressure of avian aryl hydrocarbon receptor 1 genotypes” (Scientific Reports, 2016)

Columns and labels:
Assay in all cases: luciferase reporter gene transactivation assay (ckCYP1A5 promoter) in transfected COS-7 cells; LOEC
Assay type in all cases: cell-based
[1] = target: T1, black-footed albatross AHR1 (bfaAHR1) (Phoebastria nigripes, UniProt Q76EQ7)
T1 construct: full-length cDNA in pcDNA3.1 zeo (+), expressed in COS-7 cells; with chicken ARNT1 (ckARNT1)
T1 sequence (Q76EQ7 1-861): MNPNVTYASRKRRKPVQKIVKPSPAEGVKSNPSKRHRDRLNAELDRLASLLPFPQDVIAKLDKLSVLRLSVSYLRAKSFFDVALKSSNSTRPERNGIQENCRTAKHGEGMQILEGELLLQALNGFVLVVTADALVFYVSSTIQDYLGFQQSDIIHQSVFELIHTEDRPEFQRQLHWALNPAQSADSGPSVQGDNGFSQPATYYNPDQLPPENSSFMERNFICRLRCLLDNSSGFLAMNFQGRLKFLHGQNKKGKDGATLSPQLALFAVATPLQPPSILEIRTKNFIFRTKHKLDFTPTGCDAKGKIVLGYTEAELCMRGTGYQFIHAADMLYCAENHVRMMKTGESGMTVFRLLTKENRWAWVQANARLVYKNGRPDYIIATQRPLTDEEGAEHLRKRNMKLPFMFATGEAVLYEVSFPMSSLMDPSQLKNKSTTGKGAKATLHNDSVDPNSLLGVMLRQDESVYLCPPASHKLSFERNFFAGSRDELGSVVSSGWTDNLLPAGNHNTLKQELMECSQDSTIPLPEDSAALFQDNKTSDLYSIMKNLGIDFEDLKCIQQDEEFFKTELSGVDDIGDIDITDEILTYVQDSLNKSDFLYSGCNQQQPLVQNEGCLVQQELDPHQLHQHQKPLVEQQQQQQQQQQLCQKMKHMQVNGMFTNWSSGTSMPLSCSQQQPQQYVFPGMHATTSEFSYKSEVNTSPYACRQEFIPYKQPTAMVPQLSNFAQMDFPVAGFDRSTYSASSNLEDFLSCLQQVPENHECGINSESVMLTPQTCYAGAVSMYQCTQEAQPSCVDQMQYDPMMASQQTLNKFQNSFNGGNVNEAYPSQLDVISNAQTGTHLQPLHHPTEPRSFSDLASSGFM

[2] = target: T2, common cormorant AHR1 (ccAHR1) (Phalacrocorax carbo, UniProt Q76CM2)
T2 construct: gene AHR 1; full-length cDNA in pcDNA3.1 zeo (+), expressed in COS-7 cells; with chicken ARNT1 (ckARNT1)
T2 sequence (Q76CM2 1-860): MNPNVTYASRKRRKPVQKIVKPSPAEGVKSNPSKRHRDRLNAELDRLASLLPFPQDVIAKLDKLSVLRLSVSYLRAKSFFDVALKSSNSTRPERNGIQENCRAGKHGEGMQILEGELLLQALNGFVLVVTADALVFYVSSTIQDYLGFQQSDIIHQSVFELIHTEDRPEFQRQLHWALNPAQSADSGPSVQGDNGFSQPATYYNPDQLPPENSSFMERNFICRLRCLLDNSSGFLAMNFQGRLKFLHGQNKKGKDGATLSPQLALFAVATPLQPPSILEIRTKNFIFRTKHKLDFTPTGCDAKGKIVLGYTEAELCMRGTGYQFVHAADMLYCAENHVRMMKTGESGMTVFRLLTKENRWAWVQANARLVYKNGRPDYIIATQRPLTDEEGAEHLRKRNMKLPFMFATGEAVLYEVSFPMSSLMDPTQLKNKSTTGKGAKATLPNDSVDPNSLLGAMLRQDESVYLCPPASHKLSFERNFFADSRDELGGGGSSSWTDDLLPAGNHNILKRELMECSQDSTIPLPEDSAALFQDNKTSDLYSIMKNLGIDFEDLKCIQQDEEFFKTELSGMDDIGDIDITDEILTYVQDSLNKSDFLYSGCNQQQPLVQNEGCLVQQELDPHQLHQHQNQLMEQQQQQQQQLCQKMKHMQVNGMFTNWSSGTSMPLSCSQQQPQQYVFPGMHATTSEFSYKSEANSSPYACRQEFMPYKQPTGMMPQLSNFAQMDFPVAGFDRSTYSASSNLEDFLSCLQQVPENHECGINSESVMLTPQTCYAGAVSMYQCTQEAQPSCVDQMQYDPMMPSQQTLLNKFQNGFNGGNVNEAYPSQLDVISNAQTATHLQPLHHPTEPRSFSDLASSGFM

chicken AHR1 (ckAHR1) = target: T3, chicken AHR1 (ckAHR1) (Gallus gallus, UniProt Q9I9E2)
T3 construct: full-length cDNA in pcDNA3.1 zeo (+), expressed in COS-7 cells; with chicken ARNT1 (ckARNT1)
T3 sequence (Q9I9E2 1-858): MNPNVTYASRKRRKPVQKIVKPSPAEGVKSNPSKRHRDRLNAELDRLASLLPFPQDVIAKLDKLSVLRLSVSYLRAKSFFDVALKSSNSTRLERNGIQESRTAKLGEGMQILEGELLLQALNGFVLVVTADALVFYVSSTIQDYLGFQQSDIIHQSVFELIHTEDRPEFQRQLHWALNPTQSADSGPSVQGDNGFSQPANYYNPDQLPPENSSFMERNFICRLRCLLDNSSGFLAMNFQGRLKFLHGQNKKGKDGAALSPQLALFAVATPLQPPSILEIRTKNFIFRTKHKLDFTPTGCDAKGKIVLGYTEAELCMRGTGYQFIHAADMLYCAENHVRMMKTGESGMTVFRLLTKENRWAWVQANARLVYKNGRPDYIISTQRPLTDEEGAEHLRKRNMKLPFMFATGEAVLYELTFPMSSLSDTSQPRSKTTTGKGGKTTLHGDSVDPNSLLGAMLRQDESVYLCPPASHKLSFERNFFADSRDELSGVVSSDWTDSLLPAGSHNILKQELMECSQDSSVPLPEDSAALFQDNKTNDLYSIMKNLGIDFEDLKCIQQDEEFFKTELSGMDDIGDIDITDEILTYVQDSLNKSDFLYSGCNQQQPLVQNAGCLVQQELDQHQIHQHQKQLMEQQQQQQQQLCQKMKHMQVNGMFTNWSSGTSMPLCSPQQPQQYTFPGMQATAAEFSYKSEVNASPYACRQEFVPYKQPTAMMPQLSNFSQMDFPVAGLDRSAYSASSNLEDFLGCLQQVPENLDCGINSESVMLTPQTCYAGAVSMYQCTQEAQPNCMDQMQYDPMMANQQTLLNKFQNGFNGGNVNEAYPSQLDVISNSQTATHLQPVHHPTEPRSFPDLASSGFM

SMILES: Brc1ccc2c(c1)Oc1cc(Br)cc(Br)c1O2 [1,3,7-TriBDD, 1,3,7-tribromodibenzo-p-dioxin]
- luciferase reporter gene transactivation assay (ckCYP1A5 promoter) in transfecte [1]: 12 nM
- luciferase reporter gene transactivation assay (ckCYP1A5 promoter) in transfecte [2]: 120 nM
- luciferase reporter gene transactivation assay (ckCYP1A5 promoter) in transfecte (chicken AHR1 (ckAHR1)): 1.2 nM
